{"source": "patent US7744867B2", "about": "“PTPase inhibitors and method of using same” (The Cleveland Clinic Foundation, priority 2001, dated 2010)", "key": {"[1]": {"biological_target": "T1, PTP1B (GST fusion protein) (Homo sapiens, UniProt P18031)", "T1 construct": "purchased Upstate Biotechnology Inc. (UBI, Lake Placid, N.Y.)", "T1 sequence (P18031 whole entry, species assumed, the tested form may be a part)": "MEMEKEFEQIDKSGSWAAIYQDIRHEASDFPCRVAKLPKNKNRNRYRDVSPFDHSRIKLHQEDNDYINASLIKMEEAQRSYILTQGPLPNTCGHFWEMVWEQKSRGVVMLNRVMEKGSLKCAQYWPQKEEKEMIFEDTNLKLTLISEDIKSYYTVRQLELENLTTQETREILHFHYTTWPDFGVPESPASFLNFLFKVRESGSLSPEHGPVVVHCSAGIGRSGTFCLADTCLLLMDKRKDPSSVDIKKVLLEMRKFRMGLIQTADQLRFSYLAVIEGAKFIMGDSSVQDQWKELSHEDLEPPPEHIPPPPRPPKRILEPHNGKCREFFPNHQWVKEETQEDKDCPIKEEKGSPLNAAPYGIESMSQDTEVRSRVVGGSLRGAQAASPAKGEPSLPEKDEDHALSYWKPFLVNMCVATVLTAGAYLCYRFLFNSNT", "assay": "In vitro PTPase assay, dephosphorylation of a synthetic phosphotyrosine peptide", "format": "biochemical", "protocol": "(§1) In vitro PTPase activities were measured using the commercial protein tyrosine phosphatase assay kit (UBI) following established procedure. […] 100 μl of Malachite Green solution was added and incubated for 5 minutes, and the absorbance at 660 nm was measured after 5 minutes."}, "GST/SHP-1 fusion protein": {"biological_target": "T2, GST/SHP-1 fusion protein (Mus musculus, UniProt P29351)", "T2 construct": "made in house", "T2 sequence (P29351 whole entry, the tested form may be a part)": "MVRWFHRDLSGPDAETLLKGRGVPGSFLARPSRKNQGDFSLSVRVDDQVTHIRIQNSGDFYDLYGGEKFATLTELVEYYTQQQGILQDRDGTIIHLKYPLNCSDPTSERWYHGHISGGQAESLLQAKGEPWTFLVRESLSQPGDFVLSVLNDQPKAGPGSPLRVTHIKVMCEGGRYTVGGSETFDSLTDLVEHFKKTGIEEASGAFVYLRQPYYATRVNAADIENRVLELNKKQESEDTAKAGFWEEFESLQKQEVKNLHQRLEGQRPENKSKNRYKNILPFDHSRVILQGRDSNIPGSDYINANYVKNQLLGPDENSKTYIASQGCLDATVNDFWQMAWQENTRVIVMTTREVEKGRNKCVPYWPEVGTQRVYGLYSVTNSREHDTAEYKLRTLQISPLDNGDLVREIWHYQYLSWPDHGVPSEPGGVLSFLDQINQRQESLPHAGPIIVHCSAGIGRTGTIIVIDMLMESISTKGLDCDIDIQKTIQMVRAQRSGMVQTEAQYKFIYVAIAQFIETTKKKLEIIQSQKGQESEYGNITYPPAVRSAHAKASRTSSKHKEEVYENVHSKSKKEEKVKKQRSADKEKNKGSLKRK", "assay": "Reversibility of SHP-1 inhibition (washing of bead-bound GST/SHP-1)", "format": "biochemical", "conditions": "preincubated with inhibitor, then washed", "excerpt": "The beads were then washed 3 times in Tris buffer or without washing prior to in vitro PTPase assays."}, "recombinant PRL-1": {"biological_target": "T3, recombinant PRL-1 (Homo sapiens, UniProt Q93096)", "T3 construct": "made in house; host or cells: E. coli DH5α", "T3 sequence (Q93096 whole entry, the tested form may be a part)": "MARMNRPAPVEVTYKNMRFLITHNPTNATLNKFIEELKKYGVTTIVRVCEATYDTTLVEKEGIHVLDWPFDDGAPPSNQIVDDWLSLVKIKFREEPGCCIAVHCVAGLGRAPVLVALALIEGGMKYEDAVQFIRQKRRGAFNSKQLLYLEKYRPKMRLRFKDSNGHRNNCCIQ", "assay": "In vitro PTPase assay with recombinant PRL", "format": "biochemical", "conditions": "peptide substrate", "protocol": "as §1\n(§2) Recombinant GST fusion proteins of human PRL-1, 2 and 3 phosphatases were purified with glutathione beads from DH5α bacteria transformed by pGEX vectors containing cDNA fragments encoding the human PRLs which were generated by RT-PCR from H9 cells and confirmed by sequence analysis. Activities of the purified recombinant PRL proteins in dephosphorylating DiFMUP in the absence or presence of various inhibitors were measured following established procedure.\n(§3) To assess whether sodium stibogluconate is an inhibitor of oncogenic PRL phosphatases, its effects on the PTPase activity of recombinant PRLs were evaluated by in vitro PTPase assays."}, "recombinant PRL-2": {"biological_target": "T4, recombinant PRL-2 (Homo sapiens, UniProt Q12974)", "T4 construct": "made in house; host or cells: E. coli DH5α", "T4 sequence (Q12974 1-167)": "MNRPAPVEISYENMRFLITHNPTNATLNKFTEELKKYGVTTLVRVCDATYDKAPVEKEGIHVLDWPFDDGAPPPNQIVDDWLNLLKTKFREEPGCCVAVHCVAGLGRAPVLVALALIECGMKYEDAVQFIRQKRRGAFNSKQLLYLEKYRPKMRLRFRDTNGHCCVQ", "assay": "In vitro PTPase assay with recombinant PRL", "format": "biochemical", "protocol": "as §1, §2, §3"}, "recombinant PRL-3": {"biological_target": "T5, recombinant PRL-3 (Homo sapiens, UniProt O75365)", "T5 construct": "made in house; host or cells: E. coli DH5α", "T5 sequence (O75365 whole entry)": "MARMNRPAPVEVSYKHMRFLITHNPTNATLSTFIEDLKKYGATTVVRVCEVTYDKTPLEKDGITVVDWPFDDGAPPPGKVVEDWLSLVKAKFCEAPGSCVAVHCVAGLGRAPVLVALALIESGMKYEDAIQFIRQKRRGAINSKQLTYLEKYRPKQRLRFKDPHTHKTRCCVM", "assay": "In vitro PTPase assay with recombinant PRL (peptide or DiFMUP substrate)", "format": "biochemical", "conditions": "peptide substrate", "protocol": "as §1, §2, §3"}, "intracellular Flag-PRL-1": {"biological_target": "T6, intracellular Flag-PRL-1 (Homo sapiens, UniProt Q93096)", "T6 construct": "expressed in transfected cells; host or cells: NIH3T3", "T6 sequence (Q93096 whole entry)": "as the sequence (Q93096 whole entry, the tested form may be a part) above", "assay": "PTPase activity of anti-Flag immunocomplexes from NIH3T3 transfectants", "format": "cell-based", "conditions": "treated 5 min", "protocol": "(§4) An expression construct of Flag-tagged PRL-1 or control vector was transfected into NIH3T3 cells which were then treated without or with sodium stibogluconate and used for immunoprecipitation assays with a monoclonal anti-Flag antibody. The immunocomplexes were analyzed by SDS-PAGE/Western blotting and PTPase assays. A Flag-tagged protein with a molecular weight approximately 22 kDa as expected for Flag-PRL-1 was detected in the immunocomplexes from untreated or sodium stibogluconate -treated Flag-PRL-1 transfectants but not in those from the control cells (FIG. 6A).\n(§5) Glucatime inactivates intracellular PRL phosphatases. NIH3T3 stable transfectants of Flag-tagged PRL-1 (A), PRL-2 (B) and PRL-3 (C) were untreated or treated with glucatime for 5 minutes and then washed to remove cell free drug. The Flag-tagged PRLs were immunoprecipitated from the cells using a monoclonal anti-Flag antibody. The amounts of Flag-tagged PRLs in the immunocomplexes were quantified by SDS-PAGE/Western blotting with the anti-Flag antibody (the top panel). Activities of the immunocomplexes in dephosphorylating a synthetic phosphotyrosine peptide were determined by in vitro PTPase assays (the low panel)."}, "intracellular Flag-PRL-3": {"biological_target": "T7, intracellular Flag-PRL-3 (Homo sapiens, UniProt O75365)", "T7 construct": "expressed in transfected cells; host or cells: NIH3T3", "T7 sequence (O75365 whole entry)": "as the sequence (O75365 whole entry) above", "assay": "PTPase activity of anti-Flag immunocomplexes from NIH3T3 transfectants", "format": "cell-based", "conditions": "treated 5 min", "protocol": "as §4, §5"}, "intracellular Flag-PRL-2": {"biological_target": "T8, intracellular Flag-PRL-2 (Homo sapiens, UniProt Q12974)", "T8 construct": "expressed in transfected cells; host or cells: NIH3T3", "T8 sequence (Q12974 1-167)": "T4 sequence (Q12974 1-167)", "assay": "PTPase activity of anti-Flag immunocomplexes from NIH3T3 transfectants", "format": "cell-based", "protocol": "as §4\nFlag-PRL-2 transfectants were briefly treated with sodium stibogluconate for 5 minutes, washed to remove cell-free drug and then incubated for various times prior to termination by cell lysis. Anti-Flag immunocomplexes from the cells were analyzed by SDS-PAGE/Western blotting and PTPase assays. The amounts of Flag-PRL-2 proteins in the immunocomplexes were at similar levels as quantified by probing with an anti-Flag antibody. […] PTPase activity of the immunocomplexes from cells incubated for 24 hours was 78% of the untreated cells.\nGlucatime-induced inactivation of intracellular PRL-2 lasts more than 24 hours. NIH3T3 stable transfectant of Flag-tagged PRL-2 was treated with glucatime for 5 minutes, washed to remove cell free drug and then incubated for various times prior to termination by lysing the cells in lysis buffer. Flag-tagged PRL-2 was immunoprecipitated from the cell lysates using a monoclonal anti-Flag antibody. The amounts of Flag-tagged PRL-2 in the immunocomplexes were quantified by SDS-PAGE/Western blotting with the anti-Flag antibody (A). Activities of the immunocomplexes in dephosphorylating a synthetic phosphotyrosine peptide were determined by in vitro PTPase assays (B)."}, "intracellular PTP1B": {"biological_target": "T9, intracellular PTP1B (Mus musculus, UniProt P35821)", "T9 construct": "endogenous in cells; host or cells: NIH3T3", "T9 sequence (P35821 whole entry)": "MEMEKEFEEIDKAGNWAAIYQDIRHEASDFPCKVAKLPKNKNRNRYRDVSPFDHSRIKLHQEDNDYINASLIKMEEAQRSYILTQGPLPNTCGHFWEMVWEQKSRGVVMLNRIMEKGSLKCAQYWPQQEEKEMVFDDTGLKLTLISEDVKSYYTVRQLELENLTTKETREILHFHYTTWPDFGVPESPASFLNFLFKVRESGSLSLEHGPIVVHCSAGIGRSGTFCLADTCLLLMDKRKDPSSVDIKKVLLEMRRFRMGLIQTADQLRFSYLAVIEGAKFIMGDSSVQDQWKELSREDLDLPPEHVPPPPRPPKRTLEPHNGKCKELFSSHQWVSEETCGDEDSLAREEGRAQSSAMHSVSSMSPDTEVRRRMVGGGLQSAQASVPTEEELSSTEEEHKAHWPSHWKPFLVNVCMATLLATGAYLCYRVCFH", "assay": "PTPase activity of anti-PTP1B immunocomplexes from NIH3T3 cells", "format": "cell-based", "conditions": "treated 5 minutes", "protocol": "NIH3T3 cells were untreated or treated with glucatime for 5 minutes. PTP1B protein was immunoprecipitated from the cells using an anti-PTP1B antibody. The amounts of PTP1B in the immunocomplexes were quantified by SDS-PAGE/Western blotting with the anti-PTP1B antibody (A). Activities of the immunocomplexes in dephosphorylating a synthetic phosphotyrosine peptide were determined by in vitro PTPase assays (B)."}, "[2]": {"system": "human cancer cell lines (A549, DR, HEY, MDA231, SK-N-SH, WM9)", "assay": "Growth of human cancer cell lines with glucatime and/or IFNα (MTT, 6 days)", "format": "cell-based", "protocol": "Growth of human cancer cell lines cultured in the absence or presence of glucatime and/or IFNα (500 U/ml) for 6 days were determined by MTT assays. These cell lines were of different human malignancies, including lung cancer (A549), lymphoma (DR), ovarian cancer (HEY), breast cancer (MDA231, or MDA), neuroblastoma (SK-N-SH, or SK) and melanoma (WM9)."}}}
{"compound": "CNC[C@H](O)[C@@H](O)[C@H](O)[C@H](O)CO.[O]=[Sb]([OH])([OH])[OH]", "note": "[glucatime, meglumine antimonate]", "values": [{"measurement": "effect against recombinant PTP1B in vitro", "setting": "[1]", "value": "partial inhibitory effect"}, {"measurement": "reversibility of SHP-1 inhibition", "setting": "GST/SHP-1 fusion protein", "value": "irreversible"}, {"measurement": "inhibition of recombinant PRL-1", "setting": "recombinant PRL-1", "value": "potent inhibitor"}, {"measurement": "inhibition of recombinant PRL-2", "setting": "recombinant PRL-2; peptide substrate", "value": "potent inhibitor"}, {"measurement": "reversibility of PRL-2 inactivation", "setting": "recombinant PRL-2; washing process / stable complex", "value": "irreversible"}, {"measurement": "inhibition of recombinant PRL-3", "setting": "recombinant PRL-3", "value": "potent inhibitor"}, {"measurement": "PTPase activity of Flag-PRL-1 immunocomplexes from treated transfectants", "setting": "intracellular Flag-PRL-1", "value": "inactivates"}, {"measurement": "PTPase activity of Flag-PRL-3 immunocomplexes from treated transfectants", "setting": "intracellular Flag-PRL-3", "value": "inactivates"}, {"measurement": "PTPase activity of Flag-PRL-2 immunocomplexes from treated transfectants", "setting": "intracellular Flag-PRL-2; treated 5 min", "value": "inactivates"}, {"measurement": "duration of intracellular PRL-2 inactivation", "setting": "intracellular Flag-PRL-2; treated 5 minutes, washed to remove cell free drug", "value": "more than 24 hours"}, {"measurement": "inhibition of intracellular PTP1B", "setting": "intracellular PTP1B", "value": "partial inhibition"}, {"measurement": "IFNα-induced growth inhibition in presence of glucatime", "setting": "[2]; IFNα 500 U/ml", "value": "augments"}, {"measurement": "growth of human cancer cell lines in culture", "setting": "[2]; MTT", "value": "inhibits the growth"}]}
